Laboratory results: patent publication US11406707B2, “STAT3 phosphorylation during graft-versus-host disease” (H. LEE MOFFITT CANCER CENTER AND RESEARCH INSTITUTE, INC., priority 2014, dated 2022)

Key:
Format in all cases: cell-based, human
STAT5 = assay: IL-2-pulsed STAT5 phosphorylation in alloactivated T cells (flow cytometry)
Method: The 3-day exposure to allogenic moDCs allows the responding T cells to increase CD25 expression and capacity to receive IL-2 signaling, while resting or stimulated T cells phosphorylate STAT3 in response to IL-6 [Betts, B. C., et al. (2011) Blood 118, 5330-5339]. […] T-cell STAT phosphorylation was determined by surface staining for CD3, followed by fixation (CytoFix; […] The percentage of STAT3 and bright STAT5 phosphorylation in the T cells is depicted by the gates in each respective histogram (FIG. 1C, D).

RORgammaT = RORgammaT expression by RT-PCR in allostimulated CD4+ T-cells; conditions: S3I-201 alone, 5 days
Method: To optimize the detection of RORgammaT expression, CD4+ T-cells were isolated by magnetic bead negative selection (Miltenyi Biotec, Auburn, Calif. USA). […] (2011) Blood 118:5330-9; Betts, B C, et al. (2013) J Leukoc Biol. 2014 95(2):205-13; Betts, B C, et al. (2011) Blood 118:5340-3]. […] After the 5 day culture, the T-cells were harvested. Total RNA was extracted using TRIZOL (Life Technologies) according to manufacturer instructions. […] RT-PCR was carried out on an ABI 7900 instrument (Applied Biosystems) and performed [Ratajewski, M, et al. (2012) J Immunol 189:3034-42] with some modification using SYBR® Green PCR Master Mix (Life Technologies) as follows: 10 minutes at 95° C. and then 45 cycles each at 95° C. for 15 seconds, 59° C. for 45 seconds, and 72° C. for 10 seconds. The following primers were used: RORgammaT forward [NT] ID NO:7) and reverse […] NO:8); GAPDH forward [NT] ID NO:9) and reverse [NT] ID NO:10). PCR product purity was assessed by dissociation curves. The differences in gene expression were calculated by 2-ΔΔCt in triplicate. Data were normalized to GAPDH expression.

TH17 cells = assay: Evaluation of TH17 responses (CD4+ IL-17A+ T cells, IL-17A ELISA)
Method: To optimize the detection of IL-17A producing cells, nylon-wool-purified T cells underwent CD4^+ magnetic-bead selection. The CD4^+ T cells were cultured in triplicate with allogeneic, mature moDCs (DC:T cell ratio 1:30, 1×10^6 T cells/1 ml medium in a 48-well plate, 37° C.) and treated with S3I-201 (50 or 100 μM) or DMSO. The medium was supplemented with IL-6 (10^5 IU/ml), TGF-β (4 ng/ml), and anti-IFN-γ mAb (10 μg/ml) to support TH17 growth. The T cells were harvested and stimulated with PMA/ionomycin for 5 h, with GolgiStop Protein Transport Inhibitor (BD Biosciences) added after 1 h of activation. TH17 cells were identified by surface CD3 and CD4 expression, followed by intracellular staining for IL-17A. The absolute number of IL-17A-producing CD4^+ T cells was obtained by timed acquisition.
The concentration of IL-17A was measured (anti-human IL-17A [homodimer] ELISA Ready-Set-Go; eBioscience) in the supernatant of identically prepared and drug-treated CD4 T-cell allo-MLRs (DC:T cell ratio 1:30, 1.5×10^5 T cells per 125 μl medium in a 96-well plate, 37° C.). After 5 days, PMA/ionomycin was added directly to the cultures and stimulated for 5 h. GolgiStop was omitted from the PMA/ionomycin activation step, to permit detection of IL-17A in the culture supernatants. The supernatants were collected, and the IL-17A protein concentration was measured in triplicate, per the manufacturer's instructions.

[1] = S3I-201 50 or 100 μM, 5 day coculture with IL-6, TGF-β, anti-IFN-γ mAb

`Cc1ccc(S(=O)(=O)OCC(=O)Nc2ccc(C(=O)O)c(O)c2)cc1` [S3I-201] was tested, and the “off-target effect on IL-2/STAT5 phosphorylation (geometric MFI ratio, percentage)” value (STAT5; S3I-201 100 μM vs DMSO) was “decrease in IL-2/STAT5 phosphorylation”, the “IL-2-induced STAT5 phosphorylation” value (STAT5; S3I-201 50 or 100 μM, 15 min IL-2 pulse, vs unstimulated baseline) was “occurred in all treated T cells” and the “RORgammaT expression compared with DMSO” value (RORgammaT) was “significant suppression”. The “absolute numbers of CD4+, IL-17A+ T cells compared with DMSO” value (TH17 cells; [1]) was “significant reduction”, the “frequency of CD4+, IL-17A+ T cells compared with DMSO” value (TH17 cells; [1]) was “significant reduction” and the “IL-17A protein concentration in coculture supernatants” value (TH17 cells; S3I-201, 5 day coculture, ELISA) was “significant decrease”.
